Laboratory results taken from patent US11780893B2, “Kv1.3 blockers” (Zealand Pharma A/S, priority 2019, dated 2023).
Like-named read-outs stand apart in the source and are kept apart here. Bridge positions count the residues as written; N and C are the ends. Square brackets hold non-standard residues; d marks the D form. Peptide text beside a SMILES is read from it. Nle = CCCC[C@H](N)C(=O)O

Legend:
Kv1.3 = target: T1, Kv1.3 (Homo sapiens, UniProt P22001); test: cell-based; conditions: CHO cells, whole-cell patch clamp; read-out: Potency IC50 (nM) Kv1.3
T1 construct: expressed in transfected cells; host or cells: Chinese Hamster Ovary (CHO)

[1] = target: T2, human Kv1.3 voltage-gated K+ channel (Homo sapiens, UniProt P22001); test: cell-based; conditions: inhibition of thallium flux, CHO-DUKX cells with human Kv1.3; read-out: IC50
T2 construct: host or cells: CHO-DUKX

[2] = system: delayed-type hypersensitivity (DTH) ear swelling response; type: in vivo, rat; conditions: Kv1.3 blocker 100 nmol/kg SC 24 hrs prior to KLH challenge, CsA 10 mg/kg per os
in vivo = conditions: male, rat, sc, 70 nmol/kg
Kv1.1 = target: T3, Kv1.1 (Homo sapiens, UniProt Q09470); test: cell-based; conditions: for IC50: CHO cells, whole-cell patch clamp, read-out: Potency IC50 (nM) Kv1.1; for Selectivity Kv1.1/Kv1.3: ratio IC50[Kv1.1]/IC50[Kv1.3]
T3 construct: expressed in transfected cells; host or cells: Chinese Hamster Ovary (CHO)

Kv1.6 = target: T4, Kv1.6 (Homo sapiens, UniProt P17658); test: cell-based; conditions: for IC50: CHO cells, whole-cell patch clamp, read-out: Potency IC50 (nM) Kv1.6; for Selectivity Kv1.6/Kv1.3: ratio IC50[Kv1.6]/IC50[Kv1.3]
T4 construct: expressed in transfected cells; host or cells: Chinese Hamster Ovary (CHO)

Kv1.2 = target: T5, Kv1.2 (Homo sapiens, UniProt P16389); test: cell-based; conditions: CHO cells, whole-cell patch clamp; read-out: Potency IC50 (nM) Kv1.2
T5 construct: expressed in transfected cells; host or cells: Chinese Hamster Ovary (CHO)

Rat whole blood = Rat whole blood (Rattus norvegicus, UniProt P15384)
Rat whole blood, sequence (P15384 whole entry): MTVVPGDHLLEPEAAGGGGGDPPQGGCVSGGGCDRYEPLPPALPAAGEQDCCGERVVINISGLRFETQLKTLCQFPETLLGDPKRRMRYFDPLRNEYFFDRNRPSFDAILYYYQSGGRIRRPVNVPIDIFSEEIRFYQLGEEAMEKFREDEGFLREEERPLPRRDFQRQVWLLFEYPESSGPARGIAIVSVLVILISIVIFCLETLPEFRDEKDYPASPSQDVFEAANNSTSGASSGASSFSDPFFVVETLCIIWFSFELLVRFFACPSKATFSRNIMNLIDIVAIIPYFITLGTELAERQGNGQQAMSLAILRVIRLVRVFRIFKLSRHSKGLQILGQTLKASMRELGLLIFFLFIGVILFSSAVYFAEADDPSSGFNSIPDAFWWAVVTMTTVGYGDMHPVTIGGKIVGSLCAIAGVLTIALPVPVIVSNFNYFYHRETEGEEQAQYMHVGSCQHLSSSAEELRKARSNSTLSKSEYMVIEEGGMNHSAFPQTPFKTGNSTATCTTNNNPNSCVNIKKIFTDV

T5 sequence (P16389 whole entry): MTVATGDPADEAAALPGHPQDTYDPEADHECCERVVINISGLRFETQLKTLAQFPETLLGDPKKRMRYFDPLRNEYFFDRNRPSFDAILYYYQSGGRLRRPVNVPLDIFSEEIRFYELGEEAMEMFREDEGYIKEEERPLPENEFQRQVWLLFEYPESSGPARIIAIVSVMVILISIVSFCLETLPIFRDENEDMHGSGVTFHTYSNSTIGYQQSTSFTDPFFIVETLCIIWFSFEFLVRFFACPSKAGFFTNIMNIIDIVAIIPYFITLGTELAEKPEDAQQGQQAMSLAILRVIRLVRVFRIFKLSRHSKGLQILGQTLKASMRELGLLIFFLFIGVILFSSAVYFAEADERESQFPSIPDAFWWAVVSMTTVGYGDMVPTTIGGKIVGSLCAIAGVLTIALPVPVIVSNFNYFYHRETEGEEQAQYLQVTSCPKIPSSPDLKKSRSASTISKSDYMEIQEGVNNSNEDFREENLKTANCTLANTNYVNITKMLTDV
T4 sequence (P17658 whole entry): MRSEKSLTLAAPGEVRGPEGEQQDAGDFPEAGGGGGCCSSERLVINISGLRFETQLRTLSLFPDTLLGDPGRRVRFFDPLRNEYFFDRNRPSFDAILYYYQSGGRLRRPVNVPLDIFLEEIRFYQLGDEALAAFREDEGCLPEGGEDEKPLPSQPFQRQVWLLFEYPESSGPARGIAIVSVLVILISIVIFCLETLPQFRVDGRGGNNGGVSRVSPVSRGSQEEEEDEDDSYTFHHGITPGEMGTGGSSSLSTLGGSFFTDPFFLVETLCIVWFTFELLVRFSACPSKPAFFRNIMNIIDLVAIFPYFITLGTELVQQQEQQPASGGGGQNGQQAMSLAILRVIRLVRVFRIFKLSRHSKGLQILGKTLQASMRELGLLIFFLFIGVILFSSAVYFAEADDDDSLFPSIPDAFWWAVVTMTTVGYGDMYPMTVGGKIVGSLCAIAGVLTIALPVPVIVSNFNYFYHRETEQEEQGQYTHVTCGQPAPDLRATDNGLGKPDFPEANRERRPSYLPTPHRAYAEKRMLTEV
T1 sequence (P22001 whole entry): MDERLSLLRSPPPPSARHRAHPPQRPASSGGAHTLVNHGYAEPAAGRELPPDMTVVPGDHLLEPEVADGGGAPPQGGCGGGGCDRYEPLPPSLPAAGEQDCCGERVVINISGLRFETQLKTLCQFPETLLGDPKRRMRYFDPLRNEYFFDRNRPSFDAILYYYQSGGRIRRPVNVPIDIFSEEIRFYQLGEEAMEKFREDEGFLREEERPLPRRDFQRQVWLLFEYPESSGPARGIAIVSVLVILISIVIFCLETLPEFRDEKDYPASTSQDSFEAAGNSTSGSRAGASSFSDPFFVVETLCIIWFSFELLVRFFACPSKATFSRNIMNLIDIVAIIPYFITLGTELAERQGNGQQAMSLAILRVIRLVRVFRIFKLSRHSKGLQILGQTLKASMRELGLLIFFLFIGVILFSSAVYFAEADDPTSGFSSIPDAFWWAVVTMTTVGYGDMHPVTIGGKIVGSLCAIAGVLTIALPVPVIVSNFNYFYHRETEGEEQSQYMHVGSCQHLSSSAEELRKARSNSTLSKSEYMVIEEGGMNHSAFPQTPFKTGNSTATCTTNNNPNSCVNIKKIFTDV
T2 sequence (P22001 whole entry): as above
T3 sequence (Q09470 whole entry): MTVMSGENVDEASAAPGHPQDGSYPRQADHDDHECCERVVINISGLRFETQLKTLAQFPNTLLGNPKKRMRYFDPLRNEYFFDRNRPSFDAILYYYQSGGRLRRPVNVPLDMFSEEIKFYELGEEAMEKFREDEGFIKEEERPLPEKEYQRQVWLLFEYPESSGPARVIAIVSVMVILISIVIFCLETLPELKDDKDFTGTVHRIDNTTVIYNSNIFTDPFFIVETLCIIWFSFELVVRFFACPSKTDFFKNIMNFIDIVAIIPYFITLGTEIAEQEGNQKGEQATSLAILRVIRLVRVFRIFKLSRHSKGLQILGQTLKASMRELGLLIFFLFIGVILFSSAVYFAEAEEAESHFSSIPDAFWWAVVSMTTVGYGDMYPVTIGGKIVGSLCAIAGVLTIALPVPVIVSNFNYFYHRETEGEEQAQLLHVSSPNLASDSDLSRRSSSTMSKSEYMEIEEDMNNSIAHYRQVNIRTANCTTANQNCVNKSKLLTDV

## CCCC[C@H](NC(=O)[C@@H]1CCCN1)C(=O)N[C@@H](CCC(=O)O)C(=O)N[C@@H](CCCC)C(=O)N[C@@H](CCCNC(=N)N)C(=O)N[C@H]1CSSC[C@@H]2NC(=O)[C@H](CCCCN)NC(=O)CNC(=O)[C@H](Cc3ccccc3)NC(=O)[C@H]([C@@H](C)CC)NC(=O)[C@H](CO)NC(=O)CNC(=O)[C@H]([C@@H](C)CC)NC(=O)[C@H](C)NC(=O)[C@H](C)NC(=O)[C@H](CC(C)C)NC(=O)[C@@H]3CSSC[C@@H](C(=O)N[C@@H](Cc4ccc(O)cc4)C(=O)N4CCC[C@H]4C(=O)N[C@@H](CCCNC(=N)N)C(=O)O)NC(=O)[C@H](CCCCN)NC(=O)[C@H](CSSC[C@H](NC(=O)[C@H](CCC(=O)O)NC(=O)[C@H](C(C)C)NC(=O)[C@H](CO)NC(=O)[C@H](C)NC(=O)[C@H](CO)NC1=O)C(=O)N[C@@H](C)C(=O)N[C@@H](CCC(N)=O)C(=O)N[C@@H](CCCCN)C(=O)N3)NC(=O)[C@H](CCCCN)NC(=O)[C@H](CCCCN)NC(=O)[C@H](CC(N)=O)NC(=O)[C@H](CCCC)NC2=O [Compound 103] (H-P[Nle]E[Nle]RCSASVECAQKCLAAIGSIFGKC[Nle]NKKCKCYPR-OH; disulfide 6-27, 12-32, 16-34)
Kv1.3
  IC50: 0.55 nM
[1]
  IC50: 0.38 nM
[2]; Exp #7
  % inhibition of ear thickness (AUC of Δ ear thickness 0-48 hours): 48.9%
In vivo
  AUC(0-inf): 0.177 µM·h
  Cmax: 68.4 nM
  half-life: 81.6 min
Kv1.1
  IC50: > 3000 nM
  Selectivity Kv1.1/Kv1.3: >5500
Kv1.6
  IC50: > 3000 nM
  Selectivity Kv1.6/Kv1.3: >5500
Kv1.2
  IC50: > 3000 nM

## CCCC[C@H](NC(=O)[C@@H]1CCCN1)C(=O)N[C@@H](CCC(=O)O)C(=O)N[C@@H](CCCC)C(=O)N[C@@H](CCCNC(=N)N)C(=O)N[C@H]1CSSC[C@@H]2NC(=O)[C@H](CCCCN)NC(=O)CNC(=O)[C@H](Cc3ccccc3)NC(=O)[C@H]([C@@H](C)CC)NC(=O)[C@H](CO)NC(=O)CNC(=O)[C@H]([C@@H](C)CC)NC(=O)[C@H](C)NC(=O)[C@H](C)NC(=O)[C@H](CC(C)C)NC(=O)[C@@H]3CSSC[C@@H](C(=O)N[C@@H](Cc4ccc(O)cc4)C(=O)N4CCC[C@H]4C(=O)N[C@@H](CCCNC(=N)N)C(=O)O)NC(=O)[C@H](CCCCN)NC(=O)[C@H](CSSC[C@H](NC(=O)[C@H](CCC(=O)O)NC(=O)[C@H](C(C)C)NC(=O)[C@H](CO)NC(=O)[C@H](C)NC(=O)[C@H](CO)NC1=O)C(=O)N[C@@H](CCCCN)C(=O)N[C@@H](CCC(N)=O)C(=O)N[C@@H](CCCCN)C(=O)N3)NC(=O)[C@H](CCCCN)NC(=O)[C@H](CCCCN)NC(=O)[C@H](CC(N)=O)NC(=O)[C@H](CCCC)NC2=O [Compound 97] (H-P[Nle]E[Nle]RCSASVECKQKCLAAIGSIFGKC[Nle]NKKCKCYPR-OH; disulfide 6-27, 12-32, 16-34)
Kv1.3
  IC50: 0.33 nM
[1]
  IC50: 0.15 nM
[2]; Exp #6
  % inhibition of ear thickness (AUC of Δ ear thickness 0-48 hours): 42.5%
[2]; Exp #8
  % inhibition of ear thickness (AUC of Δ ear thickness 0-48 hours): 37.7%
In vivo
  AUC(0-inf): 0.112 µM·h
  Cmax: 52.6 nM
  half-life: 62.4 min
Kv1.1
  IC50: > 3000 nM
  Selectivity Kv1.1/Kv1.3: >9100
Kv1.6
  IC50: > 3000 nM
  Selectivity Kv1.6/Kv1.3: >9100
Rat whole blood
  IC50: ≤ 1 nM
Kv1.2
  IC50: 1120 nM

## CCCC[C@@H]1NC(=O)[C@@H]2CSSC[C@H](NC(=O)[C@H](CCCNC(=N)N)NC(=O)[C@H](CCCC)NC(=O)[C@H](CC(=O)O)NC(=O)[C@@H](NC(=O)[C@@H](N)CC(N)=O)[C@@H](C)CC)C(=O)N[C@@H](CO)C(=O)N[C@@H](C)C(=O)N[C@@H](CO)C(=O)N[C@@H](C(C)C)C(=O)N[C@@H](CCC(=O)O)C(=O)N[C@H]3CSSC[C@H](NC(=O)[C@H](CCCCN)NC(=O)[C@H](CCCCN)NC(=O)[C@H](CC(N)=O)NC1=O)C(=O)N[C@@H](CCCCN)C(=O)N[C@H](C(=O)N[C@@H](Cc1ccc(O)cc1)C(=O)N1CCC[C@H]1C(=O)N[C@@H](CCCNC(=N)N)C(=O)O)CSSC[C@H](NC(=O)[C@H](CCCCN)NC(=O)[C@H](CCC(N)=O)NC(=O)[C@H](CCCCN)NC3=O)C(=O)N[C@@H](CC(C)C)C(=O)N[C@@H](CCCCN)C(=O)N[C@@H](C)C(=O)N[C@@H]([C@@H](C)CC)C(=O)NCC(=O)N[C@@H](CO)C(=O)N[C@@H]([C@@H](C)CC)C(=O)N[C@@H](Cc1ccccc1)C(=O)NCC(=O)N[C@@H](CCCCN)C(=O)N2 [Compound 95] (H-NID[Nle]RCSASVECKQKCLKAIGSIFGKC[Nle]NKKCKCYPR-OH; disulfide 6-27, 12-32, 16-34)
Kv1.3
  IC50: 0.27 nM
[1]
  IC50: 0.16 nM
[2]; Exp #5
  % inhibition of ear thickness (AUC of Δ ear thickness 0-48 hours): 39.6%
In vivo
  AUC(0-inf): 0.085 µM·h
  Cmax: 46.5 nM
  half-life: 65.4 min
Kv1.1
  IC50: > 3000 nM
  Selectivity Kv1.1/Kv1.3: >11300
Kv1.6
  IC50: > 3000 nM
  Selectivity Kv1.6/Kv1.3: >11300
Kv1.2
  IC50: 2060 nM

## CC[C@H](C)[C@@H]1NC(=O)[C@H](C)NC(=O)[C@H](Cc2ccc(O)cc2)NC(=O)[C@H](CC(C)C)NC(=O)[C@@H]2CSSC[C@@H](C(=O)N[C@@H](Cc3ccc(O)cc3)C(=O)N3CCC[C@H]3C(=O)N[C@@H](CCCNC(=N)N)C(N)=O)NC(=O)[C@H](CCCCN)NC(=O)[C@@H]3CSSC[C@H](NC(=O)[C@H](CCC(=O)O)NC(=O)[C@H](C(C)C)NC(=O)[C@H](CO)NC(=O)[C@H](C)NC(=O)[C@H](CO)NC(=O)[C@@H](NC(=O)[C@H](CCCNC(=N)N)NC(=O)[C@H](CCSC)NC(=O)[C@H](CC(=O)O)NC(=O)[C@H](CCSC)NC(=O)[C@@H](N)CC(N)=O)CSSC[C@H](NC(=O)[C@H](CCCCN)NC(=O)CNC(=O)[C@H](Cc4ccccc4)NC(=O)[C@H]([C@@H](C)CC)NC(=O)[C@H](CO)NC(=O)CNC1=O)C(=O)N[C@@H](CCSC)C(=O)N[C@@H](CC(N)=O)C(=O)N[C@@H](CCCCN)C(=O)N[C@@H](CCCCN)C(=O)N3)C(=O)N[C@@H](CCCCN)C(=O)N[C@@H](CCC(N)=O)C(=O)N[C@@H](CCCCN)C(=O)N2 [Compound 53] (H-NMDMRCSASVECKQKCLYAIGSIFGKCMNKKCKCYPR-NH2; disulfide 6-27, 12-32, 16-34)
Kv1.3
  IC50: 0.29 nM
[1]
  IC50: 0.12 nM
In vivo
  AUC(0-inf): 0.0311 µM·h
  Cmax: 50 nM
  half-life: 52.2 min
Kv1.1
  IC50: > 3000 nM
  Selectivity Kv1.1/Kv1.3: >10300
Kv1.6
  IC50: > 3000 nM
  Selectivity Kv1.6/Kv1.3: >10300
Kv1.2
  IC50: 149 nM

## CC[C@H](C)[C@@H]1NC(=O)[C@H](C)NC(=O)[C@H](CCCCN)NC(=O)[C@H](CC(C)C)NC(=O)[C@@H]2CSSC[C@@H](C(=O)N[C@@H](Cc3ccc(O)cc3)C(=O)N3CCC[C@H]3C(=O)N[C@@H](CCCNC(=N)N)C(N)=O)NC(=O)[C@H](CCCCN)NC(=O)[C@@H]3CSSC[C@H](NC(=O)[C@H](CCC(=O)O)NC(=O)[C@H](C(C)C)NC(=O)[C@H](CO)NC(=O)[C@H](C)NC(=O)[C@H](CO)NC(=O)[C@@H](NC(=O)[C@H](CCCNC(=N)N)NC(=O)[C@H](CCSC)NC(=O)[C@H](CC(=O)O)NC(=O)[C@H](CCSC)NC(=O)[C@@H](N)CC(N)=O)CSSC[C@H](NC(=O)[C@H](CCCCN)NC(=O)CNC(=O)[C@H](Cc4ccccc4)NC(=O)[C@H]([C@@H](C)CC)NC(=O)[C@H](CO)NC(=O)CNC1=O)C(=O)N[C@@H](CCSC)C(=O)N[C@@H](CC(N)=O)C(=O)N[C@@H](CCCCN)C(=O)N[C@@H](CCCCN)C(=O)N3)C(=O)N[C@@H](C)C(=O)N[C@@H](CCC(N)=O)C(=O)N[C@@H](CCCCN)C(=O)N2 [Compound 30] (H-NMDMRCSASVECAQKCLKAIGSIFGKCMNKKCKCYPR-NH2; disulfide 6-27, 12-32, 16-34)
Kv1.3
  IC50: 0.14 nM
[1]
  IC50: 0.09 nM
In vivo
  AUC(0-inf): 0.0467 µM·h
  Cmax: 33.3 nM
  half-life: 44.4 min
Kv1.1
  IC50: > 3000 nM
  Selectivity Kv1.1/Kv1.3: >22000
Kv1.6
  IC50: > 3000 nM
  Selectivity Kv1.6/Kv1.3: >22000
Rat whole blood
  IC50: ≤ 1 nM
Kv1.2
  IC50: 666 nM

## CC[C@H](C)[C@@H]1NC(=O)[C@H](C)NC(=O)[C@H](CCCCN)NC(=O)[C@H](CC(C)C)NC(=O)[C@@H]2CSSC[C@@H](C(=O)N[C@@H](Cc3ccc(O)cc3)C(=O)N3CCC[C@H]3C(=O)N[C@@H](CCCNC(=N)N)C(=O)O)NC(=O)[C@H](CCCCN)NC(=O)[C@@H]3CSSC[C@H](NC(=O)[C@H](CCC(=O)O)NC(=O)[C@H](C(C)C)NC(=O)[C@H](CO)NC(=O)[C@H](C)NC(=O)[C@H](CO)NC(=O)[C@@H](NC(=O)[C@H](CCCNC(=N)N)NC(=O)[C@H](CCSC)NC(=O)[C@H](CC(=O)O)NC(=O)[C@@H](N)CCSC)CSSC[C@H](NC(=O)[C@H](CCCCN)NC(=O)CNC(=O)[C@H](Cc4ccccc4)NC(=O)[C@H]([C@@H](C)CC)NC(=O)[C@H](CO)NC(=O)CNC1=O)C(=O)N[C@@H](CCSC)C(=O)N[C@@H](CC(N)=O)C(=O)N[C@@H](CCCCN)C(=O)N[C@@H](CCCCN)C(=O)N3)C(=O)N[C@@H](CCCCN)C(=O)N[C@@H](CCC(N)=O)C(=O)N[C@@H](CCCCN)C(=O)N2 [Compound 5] (H-MDMRCSASVECKQKCLKAIGSIFGKCMNKKCKCYPR-OH; disulfide 5-26, 11-31, 15-33)
Kv1.3
  IC50: 0.38 nM
[1]
  IC50: 0.25 nM
In vivo
  AUC(0-inf): 0.0724 µM·h
  Cmax: 48.4 nM
  half-life: 55.8 min
Kv1.1
  IC50: > 3000 nM
  Selectivity Kv1.1/Kv1.3: >7900
Kv1.6
  IC50: > 3000 nM
  Selectivity Kv1.6/Kv1.3: >7900
Kv1.2
  IC50: 285 nM
